The test system of one series is p-JAK2. Briefly: p-JAK2 western blotting in F11-derived neurons. Particulars: 24 h. In kind it is cell-based.
The test system of series [1] is oxaliplatin-induced mechanical allodynia. Briefly: Oxaliplatin-induced mechanical allodynia (Dynamic Plantar Aesthesiometer). Format: in vivo, male Wistar rats. The conditions noted are these: 30 mg/kg os for 24 days; at 14 (P < 0.05) and 21 days (P < 0.01) vs Oxa + saline. The protocol:
Behavioural tests were performed on male Wistar rats (200–250 g, Harlan, Italy) housed in the animal care facility at the Department of Pharmacy of the University of Naples Federico II, Italy, as previously described. Animals were housed, in a group of five, in a room with controlled temperature (22 ± 1 °C), humidity (60 ± 10%) and light (12 h per day); food and water were available ad libitum. All animals were weighted on the day of each treatment. All behavioural tests were performed between 09:00 and 17:00 h, and the animals were used only once. Animal care and manipulations were conducted in conformity with International and National law and policies (EU Directive 2010/63/EU for animal experiments, ARRIVE guidelines, and the Basel declaration including the 3R concept). The procedures reported here were approved by the Institutional Committee on the Ethics of Animal Experiments (CVS) of the University of Naples Federico II and by Ministero della Salute under protocol no. 2014-00884607. […]
To assess for changes in sensation or in the development of mechanical allodynia, sensitivity to tactile stimulation was measured using the Dynamic Plantar Aesthesiometer (DPA, Ugo Basile, Italy), which is an automated version of the von Frey hair assessment. […] The means of paw withdrawal (expressed in grams) were calculated from an average of four separate measurements. […]

A further series in a line: Metabolic stability, dog. In kind it is in vitro ADME. The conditions noted are these: Test conc: 2.5 µM. From the text: Table 1 Physicochemical and in Vitro ADME Properties of DF2726A. | column: DF2726A
The test system of another series is IL-8/CINC1. Briefly: IL-8/CINC1 immunofluorescence of paw sections of oxaliplatin rats. Particulars: 30 mg/kg os, rat paw sections. In kind it is in vivo, male Wistar rats. The protocol:
Animals were sacrificed and a biopsy (3 mm) was taken from pad of the right hind paw. Biopsies were immediately placed in Zamboni’s fixative, where they were left at 4 °C. Tissues were then transferred to 20% sucrose for at least 24 h and used for immunohistochemistry analysis. Specimens were frozen in Optimal Cutting Temperature compound (OCT, Sakura Finetek Inc, CA, USA) and sliced into 20 μm thick serial coronal sections by cryostat AMES LAB-TEK (Westmont, Illinois, USA). […]
Five slices were examined for each animal. For each slide, 4 fields were counted. For quantitative evaluation of IL-8/CINC-1 (the homolog of IL-8 in rat) and […], photomicrographs for each condition were analysed by ImageJ software (National Institutes of Health, Bethesda, MD, USA) as previously described. […] The signal was first measured on the tissue in an area devoid of signal at visual inspection and assumed as background; the threshold was then set at 1.5 times the background and the surface area and mean grey intensity were measured for all areas above the threshold. […]

In a further series the test system is PI3K/p-cortactin. Briefly: PI3K/p-cortactin western blotting in F11-derived neurons. Particulars: 24 h. In kind it is cell-based. In general terms: A western blot detects proteins with antibodies after separation by electrophoresis.
The mark [2] stands for this setting: DF2726A 1 µM + oxaliplatin 20 µM.

Molecules are shown by their SMILES.

Regarding `CC(C)(C(=O)O)c1ccc(Nc2nc(C(F)(F)F)cs2)cc1` [DF2726A], in the series on p-JAK2 (setting [2]), the “p-JAK2, oxaliplatin-treated neurons” value is “restored control conditions”. Moreover, the “p-JAK2, paclitaxel-treated neurons” value in the series with p-JAK2 (DF2726A + paclitaxel 10 nM) is given as “restored control conditions”. In series [1], the “Effect on oxaliplatin-induced mechanical allodynia (paw withdrawal threshold, DPA test)” value is recorded as “significant anti-allodynic effect”. This molecule also returned a Metabolic stability dog in the series “Metabolic stability, dog” of 7.2 µL/min/10^6 cells. In addition, the “Effect on oxaliplatin-increased IL-8/CINC1 signalling in the dermis” value with IL-8/CINC1 was “significantly attenuated”. In addition, the “PI3K/p-cortactin expression, oxaliplatin-treated neurons” value in the series with PI3K/p-cortactin (setting [2]) is “attenuated this effect”. In addition, in the series with PI3K/p-cortactin (DF2726A + paclitaxel 10 nM), the “PI3K/p-cortactin expression, paclitaxel-treated neurons” value is listed as “attenuated this effect”.
